The record followed here is paper PMC6934184, “Selective DNA-PKcs inhibition extends the therapeutic index of localized radiotherapy and chemotherapy” (The Journal of Clinical Investigation, 2019).

SMILES strings stand for the structures.

The test addresses T1, JAK2 (Homo sapiens, UniProt O60674).
T1 construct: purchased Thermo Fisher Scientific (Life Technologies) SelectScreen
Kind of test: SelectScreen Z'LYTE. In kind it is biochemical. In short, it runs like this:
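Percent values come from Thermo SelectScreen profiling of NU5455, combining activity and binding assays. CSF1R was run in Z'LYTE format at Km app ATP, and CAMK1 in Adapta format with ATP listed at 10.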

T1 sequence (O60674 whole entry): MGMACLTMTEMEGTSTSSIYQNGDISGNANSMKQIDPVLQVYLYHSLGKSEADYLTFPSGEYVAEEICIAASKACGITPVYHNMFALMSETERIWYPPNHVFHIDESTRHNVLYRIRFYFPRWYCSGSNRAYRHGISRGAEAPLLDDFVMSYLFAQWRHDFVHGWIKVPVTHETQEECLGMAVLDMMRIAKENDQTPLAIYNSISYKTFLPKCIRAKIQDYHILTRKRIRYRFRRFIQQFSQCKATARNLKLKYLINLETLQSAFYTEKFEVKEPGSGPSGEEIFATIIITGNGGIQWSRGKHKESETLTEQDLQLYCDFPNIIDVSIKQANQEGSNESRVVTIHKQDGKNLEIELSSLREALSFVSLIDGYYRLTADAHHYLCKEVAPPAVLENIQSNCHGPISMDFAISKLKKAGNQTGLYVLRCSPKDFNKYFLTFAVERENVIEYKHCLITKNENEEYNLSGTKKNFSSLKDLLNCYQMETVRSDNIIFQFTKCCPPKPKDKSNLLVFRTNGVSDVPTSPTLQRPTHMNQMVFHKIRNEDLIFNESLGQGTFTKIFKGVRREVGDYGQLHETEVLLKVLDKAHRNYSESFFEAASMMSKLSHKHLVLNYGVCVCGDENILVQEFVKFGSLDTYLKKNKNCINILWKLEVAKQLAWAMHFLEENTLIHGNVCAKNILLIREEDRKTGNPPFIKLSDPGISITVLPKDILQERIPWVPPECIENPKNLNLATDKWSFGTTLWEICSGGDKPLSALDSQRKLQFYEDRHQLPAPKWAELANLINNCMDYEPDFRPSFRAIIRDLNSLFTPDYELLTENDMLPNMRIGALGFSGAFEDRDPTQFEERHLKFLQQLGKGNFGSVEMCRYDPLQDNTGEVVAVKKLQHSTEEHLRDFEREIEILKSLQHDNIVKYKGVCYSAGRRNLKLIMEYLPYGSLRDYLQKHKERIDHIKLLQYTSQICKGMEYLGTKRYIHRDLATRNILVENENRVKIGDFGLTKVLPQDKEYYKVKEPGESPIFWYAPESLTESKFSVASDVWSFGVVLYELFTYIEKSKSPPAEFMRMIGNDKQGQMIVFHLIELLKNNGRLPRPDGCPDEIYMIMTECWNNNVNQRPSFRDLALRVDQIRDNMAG

As usually defined, the inhibition is the percentage by which the read-out fell short of the control. Low readings indicate little suppression, high ones strong suppression. `CN(C(=O)CN1CCOCC1)c1ccc2sc3c(-c4cccc5c(=O)cc(N6CC7CCC(C6)O7)oc45)cccc3c2c1` [NU5455]: the inhibition at 1 µM was 2.5%.
